Reference: patent US20100143438A1, “BIOMOLECULES” (University of Strathclyde, priority 2006, published 2010)

Tested on: Fmoc-FRGD-PEGA surface tethered peptide (Fmoc-F↓RGD bond)
Test: Enzymatic hydrolysis of PEGA surface tethered peptides analysed by HPLC
Format: biochemical
Protocol: Three proteolytic enzymes, chymotrypsin, thermolysin and proteinase K, that are known to cleave peptide bonds involving F amino acids in the P1 position were tested for their ability to selectively hydrolyse Fmoc-F↓RGD bond^15. […] Surfaces were incubated at 37° C. for 2 hours in enzyme solution (concentrations and activities are shown in Table 1) in phosphate buffer and the cleaved products were analysed by HPLC.
Surfaces were rinsed in a known volume (at least 4 ml) of a 50:50 mixture of acetonitrile (ACN) and water. The rinsing solution was kept and added to the enzyme solution that the surface was in. 1 ml of this solution was placed into an HPLC autosampler vial. The HPLC machine (manufactured by Dionex; California, USA) consisted of a P.680 HPLC pump joined to an ASI-100 Automated Sample Injector with a Dionex UVD17OU detector. The column was an EC 250/4.6 Nucleosil 100-5 C18, with an internal diameter of 4.6 mm and a column length of 250 mm containing particles of 5 μm in diameter. 100 μl was injected into the HPLC column at the start of each run and a buffer gradient run through the column, buffer A was 99.9% water and 0.1% TFA, buffer B was 99.9% ACN and 0.1% TFA. For quantification, three samples of each surface were produced and repeated three times.

[1] = 37° C., 2 hours in enzyme solution, 100% = 4.08 nmol maximum Fmoc-peptide hydrolysed, n=9

Chymotrypsin
Fmoc-F-OH (%) [1]: 42 ± 1.8%
Fmoc-FR-OH (%) [1]: 7.5 ± 1.4%
cleavage and selectivity for Fmoc-F↓RGD versus Fmoc-FR↓GD (HPLC): performing best
